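Growth conditions: 96-well plates. Treatment: test compound, 48 hours, 5 concentrations. Analysis: linear interpolation between bracketing concentrations; unreached endpoints set to highest concentration. TGI is the concentration that stops growth completely.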
Columns and labels:
Assay in all cases: NCI tumour cell line growth inhibition, 48 h
[1] = system: HS 578T breast
[2] = system: RPMI-8226 leukemia
[3] = system: NCI-H23 lung
[4] = system: SN12C renal
[5] = system: HT29 colon
[6] = system: HOP-92 NSCLC
[7] = system: KM12 colon
[8] = system: SNB-75 CNS
[9] = system: HCT-116 colon
[10] = system: SW-620 colon
[11] = system: SR leukemia
[12] = system: OVCAR-4 ovarian
[13] = system: NCI-H522 lung
[14] = system: A498 renal
[15] = system: A549 NSCLC
[16] = system: MCF7 breast
[17] = system: SF-539 CNS
[18] = system: SF-268 CNS
[19] = system: SF-295 CNS
[20] = system: UACC-257 melanoma
[21] = system: MALME-3M melanoma
[22] = system: SNB-19 CNS
[23] = system: OVCAR-8 ovarian
[24] = system: DU-145 prostate
[25] = system: T-47D breast
[26] = system: HCC-2998 colon
[27] = system: SK-MEL-5 melanoma
[28] = system: MDA-MB-435
[29] = system: UO-31 renal
[30] = system: K-562 leukemia
[31] = system: SK-OV-3 ovarian
[32] = system: NCI-H226 lung
[33] = system: 786-0 renal
[34] = system: IGROV1 ovarian
[35] = system: MDA-MB-231 breast
[36] = system: NCI/ADR-RES ovarian
[37] = system: U251 CNS
[38] = system: PC-3 prostate
[39] = system: RXF 393 renal
[40] = system: M14 melanoma
[41] = system: UACC-62 melanoma
[42] = system: TK-10 renal
[43] = system: CAKI-1 renal
[44] = system: CCRF-CEM leukemia
[45] = system: HCT-15 colon
[46] = system: NCI-H460 lung
[47] = system: MDA-N
[48] = system: COLO 205 colon
[49] = system: BT-549 breast
[50] = system: OVCAR-5 ovarian
[51] = system: EKVX NSCLC
[52] = system: SK-MEL-28 melanoma
[53] = system: OVCAR-3 ovarian
[54] = system: HOP-62 NSCLC
[55] = system: MOLT-4 leukemia
[56] = system: LOX IMVI melanoma
[57] = system: SK-MEL-2 melanoma
[58] = system: ACHN renal
[59] = system: HL-60(TB) leukemia

Measured: TGI

Cc1nc2c(=O)[nH]c(=O)nc-2n(CCO)c1C
not listed: [59]
> 100 µM: all other assays above

Brc1ccc(-c2ccc(-c3ccc(Br)s3)s2)s1
not listed: [13] | [21] | [35] | [43]
> 100 µM: all other assays above

Reference: PubChem BioAssay (NCI)
